Values joined by “and” are separate entries in the source; they are usually repeats but may differ in a detail not shown here. Equal entries are not always repeated. Where two headings read alike, the source gives them in different places.
Columns and labels:
[1] = target: Testosterone 5α-reductase; assay: Testosterone 5α-reductase inhibitory action (nuclear fraction of ventral prostate); type: biochemical, rat (male Wistar); conditions: rat ventral prostate nuclear fraction; [4-^14 C]-testosterone, NADPH; 60 min at 37° C
Method: Testosterone 5α-Reductase Inhibitory Action
Male Wistar rats (age: 9-10 weeks old) were anesthetized with ethyl ether and ventral prostates were dissected. The isolated prostates were weighed and homogenized with ultradisperser(Yamato, Japan) and teflon-glass homogenizer in 3 tissue volumes of 50 mM Tris-HCl buffer(pH 7.2) containing 0.25M sucrose and 1 mM dithiothreitol. The homogenates were filtered with gauze and centrifuged at 3,000 rpm for 10 minutes at 4° C. The pellets were resuspended in same buffer as described above and the resultant suspension was used as the nuclear fraction.
Testosterone 5α-reductase activity was carried out described as follows. The reaction mixture contained […] of nuclear fraction 0.1 ml of 5 mM NADPH, 0.01 ml of test drug dissolved in dimethylsulfoxide and 0.78ml of Tris-HCl buffer(pH 7.0). The reaction was started by addition of 0.01 ml of 150 μM [4-^14 C]-testosterone and incubated for 60 minutes at 37° C. After incubation, reaction was stopped by adding 4 ml of ethyl acetate. 3 ml of ethyl acetate was evaporated under nitrogen to dryness and dissolved in 40 μl of ethyl acetate. 10 μl of ethyl acetate was applied to silica gel thin layer plate(HF254, Merck) and the plate was developed in ethyl acetate and cyclohexane(1:1). The plate was subjected to autoradiography and the radioactivity profiles were determined by scraping the spots of testosterone, dihydrotestosterone and other metabolites and counting in a scintillation counter. Testosterone 5a -reductase activity was calculated for the total radioactivity and radioactivities of dihydrotestosterone and other metabolites. The inhibitory activity of test drug was expressed as IC50 (nM).

α1 -Adrenoceptor = target: T1, α1 -Adrenoceptor (Oryctolagus cuniculus, UniProt O02824); assay: α1-Adrenoceptor blocking action (antagonism of phenylephrine-induced contraction of isolated urethra and prostate strips); type: cell-based, rabbit (male albino)
T1 construct: smooth muscle strips were prepared from prostate and proximal urethra; from tissue; host or cells: rabbit prostate and proximal urethra smooth muscle strips
T1 sequence (O02824 1-466): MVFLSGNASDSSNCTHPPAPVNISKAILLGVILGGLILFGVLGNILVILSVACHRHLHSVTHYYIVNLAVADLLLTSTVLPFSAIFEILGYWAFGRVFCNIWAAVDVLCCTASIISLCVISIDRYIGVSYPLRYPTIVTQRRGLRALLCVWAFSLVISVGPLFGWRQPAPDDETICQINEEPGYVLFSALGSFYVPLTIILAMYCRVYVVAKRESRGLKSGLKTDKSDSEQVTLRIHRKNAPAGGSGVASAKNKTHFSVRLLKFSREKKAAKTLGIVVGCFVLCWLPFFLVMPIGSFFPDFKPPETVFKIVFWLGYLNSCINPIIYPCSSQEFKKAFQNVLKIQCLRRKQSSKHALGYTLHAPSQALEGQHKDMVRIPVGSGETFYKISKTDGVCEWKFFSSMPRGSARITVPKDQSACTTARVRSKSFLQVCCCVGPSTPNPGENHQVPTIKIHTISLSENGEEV
Method: α1 -Adrenoceptor Blocking Action
Male albino rabbits were sacrificed by exsanguination, and the prostate and urethra were isolated. After removal of fat and connective tissues, tranverse smooth muscle strips were prepared from prostate and proximal urethra. Each segmental strip was suspended in an organ bath at 37° C. in a Krebs-Henseleit solution which had been bubbled with 95% O2 and 5% CO2. The isometric contraction under a resting tension of 1 g was recorded with a force-displacement transducer(TB-651T, Nihon Koden) on a recoder(RECTI HORIZ 8K, Nihon Sanei).
After an equilibration of tissues at least 60 minutes, contractions were elicited by repeated dose of phenylephrine until constant contraction responses were obtained. Subsequently, the dose-response curves were obtained by increasing concentrations of phenylephrine(10^-7 -×10^-4 M). After the resting period for 60 minutes, tissues were incubated with test drugs for 30 minutes and dose-response curves were constructed as described above.
In all cases, 10^-5 M propranolol(β-adrenoceptor antagonist) was administered 10 minutes before the contraction by phenylephrine.
The composition of the Krebs-Henseleit solution was as follows(mM): NaCl 118.4, KCl 4.7, MgSO4 1.2, CaCl2 2.5, NaHCO3 25.0, glucose 11.1, KH2 PO4 1.2.
The potency of each test drug was expressed as the pA2 value(negative logarithm of the antagonist dissociation constant).

[2] = isolated rabbit prostate strips, phenylephrine contraction, 30 min incubation with drug, 10^-5 M propranolol, pA2 = negative logarithm of antagonist dissociation constant, read-out: Prostate (pA2) (converted)
[3] = isolated rabbit proximal urethra strips, phenylephrine contraction, 30 min incubation with drug, 10^-5 M propranolol, pA2 = negative logarithm of antagonist dissociation constant, read-out: Urethra (pA2) (converted)

SMILES	IC50 [1]	Kb (α1 -Adrenoceptor)	other results
COc1ccccc1N1CCN(CCC(Oc2ccc(C(=O)c3cn(CCCC(=O)O)c4ccccc34)c(C)c2C)c2ccc(C)cc2)CC1 (stereo not drawn) [Example 22, 4-{3-{2,3-Dimethyl-4-{1-(4-methylphenyl)-3-[4-(2-methoxyphenyl)piperazin-1-yl]propoxy}benzoyl}indol-1-yl}butanoic acid]	3.7 nM		
COc1ccccc1N1CCN(CCCOc2ccc(C(=O)c3cn(CCCC(=O)O)c4ccccc34)cc2OCc2ccccc2)CC1 [Example 24, 4-{3-{3-Benzyloxy-4-{3-[4-(2-methoxyphenyl)piperazin-1-yl]propoxy}benzoyl}indol-1-yl}butanoic acid]		631 nM and 100 nM	
COc1ccccc1N1CCN(CCC(Oc2ccc(C(=O)c3cn(CCCC(=O)O)c4ccccc34)cc2OCc2ccccc2)c2ccc(C)cc2)CC1 (stereo not drawn) [Example 26, 4-{3-{3-Benzyloxy-4-{1-(4-methylphenyl)-3-[4-(2-methoxyphenyl)piperazin-1-yl]propoxy}benzoyl}indol-1-yl}butanoic acid]	5 nM		
COc1ccccc1N1CCN(CCCOc2cc(C(=O)c3cn(CCCC(=O)O)c4ccccc34)ccc2OCc2ccc(C)cc2)CC1 [Example 37, Potassium 4-{3-{4-(4-methylphenylmethoxy)-3-{3-[4-(2-methoxyphenyl)piperazin-1-yl]propoxy}benzoyl}indol-1-yl}butanoate]	3.5 nM	120 nM and 19.1 nM	
CCOc1ccccc1N1CCN(CCCOc2cc(C(=O)c3cn(CCCC(=O)O)c4ccccc34)ccc2OCc2ccc(C)cc2)CC1 [Example 45, Potassium 4-{3-{4-(4-methylphenylmethoxy)-3-{3-[4-(2-ethoxyphenyl)piperazin-1-yl]propoxy}benzoyl}indol-1-yl}butanoate]	1.5 nM	56.2 nM and 34.7 nM	
COc1ccccc1N1CCN(CCCOc2cc(C(=O)c3cn(CCCC(=O)O)c4ccccc34)ccc2OCc2ccc(F)cc2)CC1 [Example 42, Potassium 4-{3-{4-(4-fluorophenylmethoxy)-3-{3-[4-(2-methoxyphenyl)piperazin-1-yl]propoxy}benzoyl}indol-1-yl}butanoate]		398 nM and 70.8 nM	
Cc1ccc(C(CCN2CCN(c3ccccc3OC(C)C)CC2)Oc2ccc(C(=O)c3cn(CCCC(=O)O)c4ccccc34)cc2)cc1 (stereo not drawn) [Example 8, Potassium 4-{3-{4-{1-(4-methylphenyl)-3-[4-(2-isopropoxyphenyl)piperazin-1-yl]propoxy}benzoyl}indol-1-yl}butanoate]	0.26 nM		
COc1ccc(C(CCN2CCN(c3ccccc3OC)CC2)Oc2ccc(C(=O)c3cn(CCCC(=O)O)c4ccccc34)cc2)cc1 (stereo not drawn) [Example 20, Potassium 4-{3-{4-{1-(4-methoxyphenyl)-3-[4-(2-methoxyphenyl)piperazin-1-yl]propoxy}benzoyl}indol-1-yl}butanoate]		692 nM and 562 nM	
COc1cc(C(=O)c2cn(CCCC(=O)O)c3ccccc23)ccc1OC(CCN1CCN(c2ccccc2OC)CC1)c1ccc(CC(C)C)cc1 (stereo not drawn) [Example 13, Potassium 4-{3-{3-methoxy-4-{1-(4-isobutylphenyl)-3-[4-(2-methoxyphenyl)piperazin-1-yl]propoxy}benzoyl}indol-1-yl}butanoate]	1.4 nM		
CC(C)Oc1ccccc1N1CCN(CCC(Oc2ccc(C(=O)c3cn(CCCC(=O)O)c4ccccc34)cc2)c2ccccc2)CC1 (stereo not drawn) [Example 5, 4-{3-{4-{1-Phenyl-3-[4-(2-isopropoxyphenyl)piperazin-1-yl]propoxy}benzoyl}indol-1-yl}butanoic acid]		1100 nM and 141 nM	
COc1ccccc1N1CCN(CCC(Oc2cccc(C(=O)c3cn(CCCC(=O)O)c4ccccc34)c2)c2ccc(C)cc2)CC1 (stereo not drawn) [Example 28, Potassium 4-{3-{3-{1-(4-methylphenyl)-3-[4-(2-methoxyphenyl)piperazin-1-yl]propoxy}benzoyl}indol-1-yl}butanoate]		166 nM and 102 nM	
COc1cc(C(=O)c2cn(CCCC(=O)O)c3ccccc23)ccc1O[C@@H](CCN1CCN(c2ccccc2OC)CC1)c1ccccc1 [Example 35, Potassium S-4-{3-{3-methoxy-4-{1-phenyl-3-[4-(2-methoxyphenyl)piperazin-1-yl]propoxy}benzoyl}indol-1-yl}butanoate]	6.8 nM		Kb (α1 -Adrenoceptor; [2]): 27.5 nM; Kb (α1 -Adrenoceptor; [3]): 64.6 nM
COc1cc(C(=O)c2cn(CCCC(=O)O)c3ccccc23)ccc1OC(CCN1CCN(c2ccccc2OC)CC1)c1ccc(C)cc1 (stereo not drawn) [Example 1, Potassium 4-{3-{3-methoxy-4-{1-(4-methylphenyl)-3-[4-(2-methoxyphenyl)piperazin-1-yl]propoxy}benzoyl}indol-1-yl} butanoate]	3.7 nM		Kb (α1 -Adrenoceptor; [2]): 87.1 nM; Kb (α1 -Adrenoceptor; [3]): 380 nM
COc1cc(C(=O)c2cn(CCCC(=O)O)c3ccccc23)ccc1OC(CCN1CCN(c2ccccc2OC)CC1)c1ccccc1 (stereo not drawn) [Example 14, Potassium 4-{3-{3-methoxy-4-{1-phenyl-3-[4-(2-methoxyphenyl)piperazin-1-yl]propoxy}benzoyl}indol-1-yl}butanoate]		389 nM and 72.4 nM	
COc1ccccc1N1CCN(CCCOc2cc(C(=O)c3cn(CCCC(=O)O)c4ccccc34)ccc2OCc2ccccc2)CC1 [Example 38, Potassium 4-{3-{4-benzyloxy-3-{3-[4-(2-methoxyphenyl)piperazin-1-yl]propoxy}benzoyl}indol-1-yl}butanoate]		36.3 nM and 16.6 nM	
COc1ccccc1N1CCN(CCCOc2ccc(C(=O)c3cn(CCCC(=O)O)c4ccccc34)cc2)CC1 [Example 3, Potassium 4-{3-{4-{3-[4-(2-methoxyphenyl)piperazin-1-yl]propoxy}benzoyl}indol-1-yl}butanoate]		115 nM and 75.9 nM	
COc1ccccc1N1CCN(CCCCOc2cc(C(=O)c3cn(CCCC(=O)O)c4ccccc34)ccc2OCc2ccc(C)cc2)CC1 [Example 46, Potassium 4-{3-{3-{4-[4-(2-methoxyphenyl)piperazin-1-yl]butoxy}-4-(4-methylphenylmethoxy)benzoyl}indol-1-yl}butanoate]	1.5 nM		
CCOc1ccccc1N1CCN(CCC(Oc2ccc(C(=O)c3cn(CCCC(=O)O)c4ccccc34)cc2OC)c2ccccc2)CC1 (stereo not drawn) [Example 15, Potassium 4-{3-{3-methoxy-4-{1-phenyl-3-[4-(2-ethoxyphenyl)piperazin-1-yl]propoxy}benzoyl}indol-1-yl}butanoate]	7.9 nM	251 nM and 50.1 nM	
COc1cc(C(=O)c2cn(CCCC(=O)O)c3ccccc23)ccc1OC(CCN1CCN(c2ccccc2OC(C)C)CC1)c1ccc(C)cc1 (stereo not drawn) [Example 11, Potassium 4-{3-{3-methoxy-4-{1-(4-methylphenyl)-3-[4-(2-isopropoxyphenyl)piperazin-1-yl]propoxy}benzoyl}indol-1-yl}butanoate]	3.1 nM		
COc1cc(C(=O)c2cn(CCCC(=O)O)c3ccccc23)ccc1OC(CCN1CCN(c2ccccc2OC(C)C)CC1)c1ccccc1 (stereo not drawn) [Example 16, Potassium 4-{3-{3-methoxy-4-{1-phenyl-3-[4-(2-isopropoxyphenyl)piperazin-1-yl]propoxy}benzoyl}indol-1-yl}butanoate]		155 nM and 85.1 nM	
